Measured values from patent US11918615B2, “Anti-inflammatory botanical extract” (Innophos, LLC, priority 2018, dated 2024).

Tested on: potato 5-Lipoxygenase enzyme
Test: Lipoxygenase Inhibitor Screening Assay Kit (Cayman), hydroperoxide formation, absorbance 492 nm
Assay type: biochemical
Conditions: positive control at 100 μM
Procedure: Extracts of cranberry fruit (E1) and cranberry leaf (E2) were prepared with food-grade ethanol, and then filtered and dried as described above. Research grade reagents were used for the rest of the assay preparations. Extracts were dissolved in dimethyl sulfoxide (‘DMSO’) to a final concentration of 50 mg/mL, and then diluted in appropriate buffer for each bioassay to working concentrations.
Cranberry fruit extract (E1) and cranberry leaf extract (E2) were tested for 5-LOX inhibition using the Lipoxygenase Inhibitor Screening Assay Kit (available from Cayman Chemical, Ann Arbor, Michigan, US) and potato 5-Lipoxygenase enzyme (available from Cayman Chemical). This kit measures hydroperoxides produced in the lipoxygenation reaction.
The extracts were dissolved in methanol to final working concentrations. 5-LOX enzyme, Chromagen, and Linoleic Acid solutions were prepared immediately before use. Nordihydroguaiaretic acid (‘NDGA’) was used as a positive control. 5-LOX enzyme was added to the test samples and controls and incubated for five minutes at room temperature to allow for enzyme/inhibitor interaction. Linoleic acid substrate was added to the plate to initiate the reaction, and the plate was then shaken at room temperature for 10 minutes. […] The absorbance was then read at 492 nm. Percent inhibition of the extract concentration was calculated in comparison to the uninhibited control wells. […]

Structure (SMILES): CC(Cc1ccc(O)c(O)c1)C(C)Cc1ccc(O)c(O)c1 (stereo not shown) [NDGA, Nordihydroguaiaretic acid]
- 5-LOX enzyme inhibition: 100%
